From ChEMBL document CHEMBL1132078, “Bicyclo[3.2.1]octanes: synthesis and inhibition of binding at the dopamine and serotonin transporters” (Bioorg Med Chem Lett, 1999)

What was measured:
[1] = biological target: Sodium-dependent serotonin transporter; assay: Inhibition of [3H]citalopram binding to serotonin transporter (SERT) of cynomolgus monkey caudate-putamen; format: tissue-based
[2] = biological target: Sodium-dependent dopamine transporter (Macaca fascicularis, UniProt Q9GJT6); assay: Inhibition of [3H]WIN-35428 binding to dopamine transporter (DAT) of cynomolgus monkey caudate-putamen; format: tissue-based
Sequence of Sodium-dependent dopamine transporter (Q9GJT6 whole entry): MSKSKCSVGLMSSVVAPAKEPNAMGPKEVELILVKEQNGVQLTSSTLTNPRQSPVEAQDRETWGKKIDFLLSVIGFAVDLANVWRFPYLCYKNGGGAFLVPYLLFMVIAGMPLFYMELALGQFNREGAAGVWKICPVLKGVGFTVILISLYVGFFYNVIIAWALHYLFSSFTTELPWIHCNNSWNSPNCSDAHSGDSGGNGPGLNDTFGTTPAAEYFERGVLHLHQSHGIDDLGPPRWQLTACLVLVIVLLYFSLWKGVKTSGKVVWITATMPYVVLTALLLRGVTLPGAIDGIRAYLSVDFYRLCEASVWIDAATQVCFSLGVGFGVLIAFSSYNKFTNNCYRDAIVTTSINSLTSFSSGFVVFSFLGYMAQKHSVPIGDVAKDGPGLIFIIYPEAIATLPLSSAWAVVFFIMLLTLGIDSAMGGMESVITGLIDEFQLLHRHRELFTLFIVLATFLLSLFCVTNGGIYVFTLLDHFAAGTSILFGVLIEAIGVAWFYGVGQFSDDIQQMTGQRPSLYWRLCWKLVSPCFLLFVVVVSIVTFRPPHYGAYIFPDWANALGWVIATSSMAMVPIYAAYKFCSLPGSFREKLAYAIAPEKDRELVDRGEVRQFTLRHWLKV

| Compound | IC50 [1] [nM] | IC50 [2] [nM] |
| --- | --- | --- |
| COC(=O)C1C2CCC(CC1c1ccc(Cl)c(Cl)c1)N2 (stereo not given) | 1.24 | 0.7 |
| COC(=O)C1C(c2ccc(Cl)c(Cl)c2)CC2CCC1N2C (stereo not given) | 27.6 | 1.1 |
| COC(=O)C1=C(c2ccc(Cl)c(Cl)c2)CC2CCC1N2C (stereo not given) | 867 | 1.2 |
| COC(=O)C1C2CCC(C2)CC1c1ccc(Cl)c(Cl)c1 (racemic) | 180 | 14.3 |
| COC(=O)C1=C(c2ccc(Cl)c(Cl)c2)CC2CCC1C2 (racemic) | 5160 | 7.1 |
| COC(=O)C1C2CCC(CC1c1ccc(Cl)c(Cl)c1)O2 (racemic; form 1) |  | 3.4 |
| COC(=O)C1C2CCC(CC1c1ccc(Cl)c(Cl)c1)O2 (racemic; form 2) |  | 3.1 |
| COC(=O)C1=C(c2ccc(Cl)c(Cl)c2)CC2CCC1O2 (stereo in doubt; 5b (R)) | 2120 | 4.2 |
| COC(=O)C1=C(c2ccc(Cl)c(Cl)c2)CC2CCC1O2 (stereo in doubt; 5b (R/S)) | 1960 | 12.8 |
| COC(=O)C1C2CCC(C2)CC1c1ccc(Cl)c(Cl)c1 (stereo in doubt; 6a (R/S)) | 33.4 | 9.6 |
| COC(=O)C1C2CCC(CC1c1ccc(Cl)c(Cl)c1)O2 (stereo in doubt; 7b (R)) | 30.3 | 2.3 |
